Source: paper PMC5244392, “Interspecies cathelicidin comparison reveals divergence in antimicrobial activity, TLR modulation, chemokine induction and regulation of phagocytosis” (Scientific Reports, 2017)

What was measured:
Type in all cases: cell-based, murine
[1] = test system: LPS-induced TLR-4 activation of RAW264.7 cells; assay: LPS neutralization: LPS-induced TNFα release; conditions: peptide 0.08-20 μM; for Summary class, TLR activation LPS: 100 ng/ml LPS E. coli O111:B4, TNFα after 2 h, − = no significant effect, N = 3; for LPS neutralization / inhibition of LPS-induced activation, in words: 100 ng/ml LPS, 2 h, TNFα
Excerpt: (§1) TLR ligands: LPS Escherichia coli (E. coli) O111:B4 (TLR-4), LTA S. aureus (TLR-2), and ODN-1826 (TLR-9) were obtained from Invivogen (Toulouse, France). Chicken CATH-2 (chCATH-2) and PMAP-36 were synthesized by Fmoc-chemistry at China Peptides (CPC scientific, Sunnycale, CA) and all other cathelicidins were synthesized by Fmoc-chemistry at the Academic Centre for Dentistry Amsterdam (Amsterdam, The Netherlands) (Table 1). Purity of all peptides was >95% as analyzed by HPLC-MS.
(§2) RAW264.7 cells were stimulated with 100 ng/ml LPS E. coli O111:B4, 1 μg/ml LTA S. aureus or 2.5 nM ODN-1826 in the presence of various concentrations of different cathelicidins. TNFα release was determined after 2 h for LPS and LTA stimulation and 24 h for ODN-1826 stimulation. CXCL10, CCL5 and IL-10 release were all determined after 24 h stimulation. As a control, RAW264.7 cells were stimulated for 2 h with 10^6 CFU/ml live or heat-killed (70 °C, 0.5 h) E. coli O78, followed by a double wash with cell culture medium and subsequent 22 h incubation in cell culture medium supplemented with 250 μg/ml gentamicin.
(§3) ELISA Duoset kits for mouse TNFα, CCL5, CXCL10 and IL-10 were obtained from R&D systems (Minneapolis, MN, USA) and ELISAs were performed according to the manufacturer’s protocol. Samples were stored at −20 °C until analysis and, if needed, diluted in 1% BSA in PBS, pH 7.4. Absorbance at 450 nm was determined in a FLUOstar Omega microplate reader (BMG Labtech GmbH) and corrected for absorbance at 570 nm. Results were analyzed with MARS data analysis software (BMG Labtech GmbH).
(§4) RAW264.7 cells were stimulated for 2 h with 100 ng/ml LPS from E. coli O111:B4 in the presence of different cathelicidins at various concentrations to study the capability of LPS neutralization (Fig. 3A). […] Next, RAW264.7 cells were stimulated with 1 μg/ml S. aureus LTA for 2 h in the presence of various cathelicidin concentrations, to test LTA neutralization (Fig. 3B).
(§5) Figure 3 Effects of cathelicidins on TLR-2, -4, and -9 activation. LPS (100 ng/ml) (A), LTA (1 μg/ml) (B) or ODN-1826 (2.5 nM) (C) was mixed with different cathelicidins (0.08 μM, 0.31 μM, 1.25 μM, 5 μM, and 20 μM) before addition to the RAW264.7 cells. Supernatants were collected after 2 hours (A,B) or 24 hours (C) incubation and TNFα expression was measured. The dotted line represents the average cytokine release of control samples. Results are presented as average +/− SEM (N = 3). Statistical differences were determined by Two-way ANOVA with Bonferroni post-hoc test.

RAW264.7 cells = assay: Phagocytosis assay with fluorescent latex beads; conditions: 30 min; for Summary class, phagocytosis / Effect on bead uptake (phagocytosis), in words: latex beads 10 per cell; for Summary class, phagocytosis: 37 °C, MFI corrected for 0 °C, peptide 0.31-5 μM, − = no significant effect, N = 3; for Effect on bead uptake (phagocytosis), in words: peptide 0.31, 1.25 and 5 μM
Experimental: Red fluorescent (λex 575 nm and λem 610 nm) carboxylate-modified polystyrene latex beads (0.5 μm; Sigma Aldrich, St. Louis, MO, USA) were washed three times with PBS and resuspended in culture medium. Peptide dilutions were prepared in culture medium and added to RAW264.7 cells, directly followed by the latex beads (ratio 10 beads to 1 cell). Cells were incubated for 30 minutes at 37 °C, 5% CO2 (energy-dependent uptake) or 0 °C (non-specific adherence), after which cells were washed extensively with ice-cold PBS supplemented with 1% FCS and 0.01% NaN3, to remove all free beads. After washing, cells were scraped and resuspended in FACS buffer (PBS supplemented with 0.5% BSA). Samples were measured with the BD FACSCanto II flow cytometer (BD Biosciences, San Jose, CA, USA) and analyzed with FlowJo software (Ashland, OR, USA). Mean fluorescence intensity (MFI), corrected for non-specific adherence, was used as an indicator for the number of beads taken up.
While the above-described functions of cathelicidins are well-known, relatively little is known about the influence of cathelicidins on phagocytosis. Therefore, RAW264.7 cells were incubated with fluorescent beads to study the effect of cathelicidins on phagocytosis. The uptake was corrected for fluorescence measured after incubation on ice instead of 37 °C, which inhibits the active process of phagocytosis. After 30 minutes, 90% of the RAW264.7 cells took up latex beads (Fig. 4A). Histograms exemplify changes in bead phagocytosis with different concentrations of K9CATH (Fig. 4B), eCATH-2 (Fig. 4C) and chCATH-3 (Fig. 4D). Effect of all cathelicidins are depicted by the average mean fluorescence intensity (MFI) in Fig. 4E.
Figure 4 Effects of cathelicidins on phagocytosis by RAW264.7 cells. RAW264.7 cells were incubated with cathelicidins (0.31 μM, 1.25 μM, and 5 μM) and red fluorescent latex beads (10 beads to 1 cell) at 37 °C (energy dependent uptake) or on ice (non-specific adherence) for 30 minutes. Histograms show control (no peptide present) bead uptake at 37 °C (gray, filled) and 0 °C (black line) (A), or uptake in presence of different concentrations of indicated cathelicidins (B–D); 0 μM (red, filled), 0.31 μM (black line), 1.25 μM (green line) or 5 μM (blue line). Uptake was quantified by determining the MFI after correction for 0 °C control (E). Results are presented as average +/− SEM (N = 3). Statistical differences were determined by Two-way ANOVA with Bonferroni post-hoc test.

[2] = test system: LTA-induced TLR-2 activation of RAW264.7 cells; assay: LTA neutralization: LTA-induced TNFα release; conditions: peptide 0.08-20 μM; for Summary class, TLR activation LTA: 1 μg/ml LTA S. aureus, TNFα after 2 h, − = no significant effect, N = 3; for LTA neutralization / inhibition of LTA-induced activation, in words: 1 μg/ml S. aureus LTA, 2 h, TNFα
Excerpt: as §1, §2, §3, §4, §5

Substance | Summary class, TLR activation LPS [1] | Summary class, phagocytosis (RAW264.7 cells) | Effect on bead uptake (phagocytosis), in words (RAW264.7 cells) | Summary class, TLR activation LTA [2] | LTA neutralization / inhibition of LTA-induced activation, in words [2] | Increase of bead uptake (RAW264.7 cells; latex beads, not significant) | LPS neutralization / inhibition of LPS-induced activation, in words [1]
Ac-GRFRRLRKKTRKRLKKIGKVLKWIPPIVGSIPLGCG [PMAP-36, porcine α-helical cathelicidin, N-acetylated, 36 residues, charge +13] | ↓↓ (↓↓ = significant decrease ≤5 μM) | ↓↓ (↓↓ = significant decrease ≤5 μM) | only reduced phagocytosis at 5 μM |  |  |  | 
GLLRKGGEKIGEKLKKIGQKIKNFFQKLVPQPEQ [CRAMP, murine cathelicidin, 34 residues, charge +6] | ↓↓ (↓↓ = significant decrease ≤5 μM) | ↓↓ (↓↓ = significant decrease ≤5 μM) | reduced bead-uptake in a dose-dependent manner | ↓ (↓ = significant decrease at 20 μM) |  |  | 
KRRHWFPLSFQEFLEQLRRFRDQLPFP [eCATH-2, equine CATH-2, 27 residues, charge +4] |  |  |  | ↓↓ (↓↓ = significant decrease ≤5 μM) | significantly inhibited | ~50% | 
RFGRFLRKIRRFRPKVTITIQGSARF-NH2 [chCATH-2, chicken CATH-2, C-terminal amide, 26 residues, charge +9] | ↓↓ (↓↓ = significant decrease ≤5 μM) | ↓↓ (↓↓ = significant decrease ≤5 μM) | reduced bead-uptake in a dose-dependent manner | ↓↓ (↓↓ = significant decrease ≤5 μM) | potently inhibited |  | potently inhibited
RIIDLLWRVRRPQKPKFVTVWVR [PMAP-23, porcine α-helical cathelicidin, 23 residues, charge +6] |  | ↓↓ (↓↓ = significant decrease ≤5 μM) | reduced bead-uptake in a dose-dependent manner | ↓ (↓ = significant decrease at 20 μM) |  |  | None of the equine cathelicidins nor PMAP-23 and PR-39 were capable to neutralize LPS
RLKELITTGGQKIGEKIRRIGQRIKDFFKNLQPREEKS [Peptide K9CATH, dog cathelicidin, 38 residues, charge +6] | ↓↓ (↓↓ = significant decrease ≤5 μM) | ↓↓ (↓↓ = significant decrease ≤5 μM) | reduced bead-uptake in a dose-dependent manner |  |  |  | significantly inhibited
RRRPRPPYLPRPRPPPFFPPRLPPRIPPGFPPRFPPRFP [PR-39, porcine proline-rich cathelicidin forming a polyproline helix, 39 residues, charge +10] |  |  | did not affect bead uptake |  |  |  | None of the equine cathelicidins nor PMAP-23 and PR-39 were capable to neutralize LPS
RVKRFWPLVPVAINTVAAGINLYKAIRRK [chCATH-3, chicken CATH-3, 29 residues, charge +7] | ↓↓ (↓↓ = significant decrease ≤5 μM) |  | did not affect bead uptake |  |  |  | significantly inhibited
